We go through seven compounds from ChEMBL document CHEMBL5465560, “Selectivity Literature for EUbOPEN Chemogenomic Library” (2024).

The target of assay [1] is Casein kinase I isoform gamma-3 (Homo sapiens) (UniProt Q9Y6M4). Kind of assay: Selectivity interaction (KinomeScan (DiscoverX)) EUB0001619a CSNK1G3. The settings on record: at 1 µM.
Assay [2] has as its target T1, Tyrosine-protein kinase Tec (Homo sapiens) (UniProt P42680).
T1 sequence (whole entry): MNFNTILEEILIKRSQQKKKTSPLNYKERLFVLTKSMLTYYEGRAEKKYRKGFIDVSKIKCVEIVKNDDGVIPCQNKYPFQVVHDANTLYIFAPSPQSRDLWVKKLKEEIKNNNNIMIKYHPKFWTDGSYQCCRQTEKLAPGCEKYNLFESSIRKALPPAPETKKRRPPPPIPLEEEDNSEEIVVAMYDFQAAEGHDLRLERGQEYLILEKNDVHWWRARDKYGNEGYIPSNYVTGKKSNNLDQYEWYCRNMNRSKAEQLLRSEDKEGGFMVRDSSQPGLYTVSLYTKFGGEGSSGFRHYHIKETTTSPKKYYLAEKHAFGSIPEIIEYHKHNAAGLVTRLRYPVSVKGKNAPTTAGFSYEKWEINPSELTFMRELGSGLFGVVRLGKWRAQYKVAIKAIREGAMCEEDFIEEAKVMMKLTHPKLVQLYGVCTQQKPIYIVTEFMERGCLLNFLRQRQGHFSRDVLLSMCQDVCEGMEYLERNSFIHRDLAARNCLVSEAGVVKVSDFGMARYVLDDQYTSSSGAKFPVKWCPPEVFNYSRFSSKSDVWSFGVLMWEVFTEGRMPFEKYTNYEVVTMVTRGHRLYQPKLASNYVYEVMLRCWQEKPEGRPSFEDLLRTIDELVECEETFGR
The experiment in a line: Selectivity interaction (KinomeScan (DiscoverX)) EUB0000666a TEC. The following applies: at 10 µM.

The target of assay [3] is BDNF/NT-3 growth factors receptor (Homo sapiens) (UniProt Q16620). Kind of assay: Selectivity interaction (KinomeScan (DiscoverX)) EUB0000666a NTRK2. The following applies: at 10 µM.
Sequence of BDNF/NT-3 growth factors receptor (Homo sapiens) (Q16620 32-822 limits assumed): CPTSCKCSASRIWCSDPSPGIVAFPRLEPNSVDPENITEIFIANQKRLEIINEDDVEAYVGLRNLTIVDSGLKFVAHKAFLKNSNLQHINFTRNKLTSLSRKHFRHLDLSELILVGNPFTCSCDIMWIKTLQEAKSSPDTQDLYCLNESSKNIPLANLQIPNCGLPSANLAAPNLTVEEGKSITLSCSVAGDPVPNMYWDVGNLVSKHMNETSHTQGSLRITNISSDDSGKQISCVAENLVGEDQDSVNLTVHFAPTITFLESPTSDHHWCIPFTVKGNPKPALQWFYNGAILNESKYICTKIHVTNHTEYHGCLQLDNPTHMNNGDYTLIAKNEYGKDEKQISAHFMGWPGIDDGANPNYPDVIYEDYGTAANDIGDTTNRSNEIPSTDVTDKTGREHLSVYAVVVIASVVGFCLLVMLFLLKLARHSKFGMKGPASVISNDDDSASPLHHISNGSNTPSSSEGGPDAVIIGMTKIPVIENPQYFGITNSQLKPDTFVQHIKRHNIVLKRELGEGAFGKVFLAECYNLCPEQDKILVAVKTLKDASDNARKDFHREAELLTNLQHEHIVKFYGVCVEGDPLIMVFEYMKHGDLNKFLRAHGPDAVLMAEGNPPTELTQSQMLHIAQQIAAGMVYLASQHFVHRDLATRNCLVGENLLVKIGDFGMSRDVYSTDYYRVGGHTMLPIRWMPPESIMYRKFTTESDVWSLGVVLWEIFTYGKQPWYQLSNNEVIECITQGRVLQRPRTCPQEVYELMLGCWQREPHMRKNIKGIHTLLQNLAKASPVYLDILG
In assay [4] the target is BMP-2-inducible protein kinase (Homo sapiens) (UniProt Q9NSY1). Kind of assay: Selectivity interaction (KinomeScan (DiscoverX)) EUB0000607a BMP2K. The settings on record: at 10 µM.
Sequence of BMP-2-inducible protein kinase (Homo sapiens) (Q9NSY1 whole entry, looked up): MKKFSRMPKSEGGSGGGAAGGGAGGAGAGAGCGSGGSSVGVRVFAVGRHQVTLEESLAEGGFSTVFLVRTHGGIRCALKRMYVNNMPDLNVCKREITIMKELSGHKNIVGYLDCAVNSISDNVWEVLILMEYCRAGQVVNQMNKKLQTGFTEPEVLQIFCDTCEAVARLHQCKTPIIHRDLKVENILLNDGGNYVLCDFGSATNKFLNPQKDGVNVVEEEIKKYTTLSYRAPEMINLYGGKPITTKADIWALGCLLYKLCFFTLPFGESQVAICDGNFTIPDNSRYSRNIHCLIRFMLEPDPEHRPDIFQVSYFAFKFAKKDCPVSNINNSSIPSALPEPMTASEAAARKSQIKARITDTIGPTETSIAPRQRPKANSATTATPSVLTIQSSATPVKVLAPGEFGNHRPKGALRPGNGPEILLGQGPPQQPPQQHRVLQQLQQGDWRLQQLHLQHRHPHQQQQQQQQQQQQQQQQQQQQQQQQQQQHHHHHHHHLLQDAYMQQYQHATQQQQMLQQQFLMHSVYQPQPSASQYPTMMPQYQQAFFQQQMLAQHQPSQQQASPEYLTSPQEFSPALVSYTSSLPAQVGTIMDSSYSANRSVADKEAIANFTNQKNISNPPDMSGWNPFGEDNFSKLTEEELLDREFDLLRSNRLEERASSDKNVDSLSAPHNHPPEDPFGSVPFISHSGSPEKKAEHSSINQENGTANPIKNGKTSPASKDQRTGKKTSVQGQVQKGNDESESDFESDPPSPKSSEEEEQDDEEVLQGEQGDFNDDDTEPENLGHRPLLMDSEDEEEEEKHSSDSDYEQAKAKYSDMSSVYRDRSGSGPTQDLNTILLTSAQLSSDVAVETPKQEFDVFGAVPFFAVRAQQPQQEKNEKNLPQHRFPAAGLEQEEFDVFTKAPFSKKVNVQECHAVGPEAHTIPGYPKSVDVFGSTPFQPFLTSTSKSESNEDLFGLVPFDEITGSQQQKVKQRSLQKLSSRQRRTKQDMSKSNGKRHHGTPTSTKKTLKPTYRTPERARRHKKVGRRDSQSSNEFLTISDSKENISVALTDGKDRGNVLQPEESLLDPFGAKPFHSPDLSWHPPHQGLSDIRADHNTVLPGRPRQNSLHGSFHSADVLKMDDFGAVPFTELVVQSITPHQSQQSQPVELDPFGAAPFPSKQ
Assay [5] concerns the target T2, MAP/microtubule affinity-regulating kinase 4 (Homo sapiens) (UniProt Q96L34).
T2 sequence (whole entry): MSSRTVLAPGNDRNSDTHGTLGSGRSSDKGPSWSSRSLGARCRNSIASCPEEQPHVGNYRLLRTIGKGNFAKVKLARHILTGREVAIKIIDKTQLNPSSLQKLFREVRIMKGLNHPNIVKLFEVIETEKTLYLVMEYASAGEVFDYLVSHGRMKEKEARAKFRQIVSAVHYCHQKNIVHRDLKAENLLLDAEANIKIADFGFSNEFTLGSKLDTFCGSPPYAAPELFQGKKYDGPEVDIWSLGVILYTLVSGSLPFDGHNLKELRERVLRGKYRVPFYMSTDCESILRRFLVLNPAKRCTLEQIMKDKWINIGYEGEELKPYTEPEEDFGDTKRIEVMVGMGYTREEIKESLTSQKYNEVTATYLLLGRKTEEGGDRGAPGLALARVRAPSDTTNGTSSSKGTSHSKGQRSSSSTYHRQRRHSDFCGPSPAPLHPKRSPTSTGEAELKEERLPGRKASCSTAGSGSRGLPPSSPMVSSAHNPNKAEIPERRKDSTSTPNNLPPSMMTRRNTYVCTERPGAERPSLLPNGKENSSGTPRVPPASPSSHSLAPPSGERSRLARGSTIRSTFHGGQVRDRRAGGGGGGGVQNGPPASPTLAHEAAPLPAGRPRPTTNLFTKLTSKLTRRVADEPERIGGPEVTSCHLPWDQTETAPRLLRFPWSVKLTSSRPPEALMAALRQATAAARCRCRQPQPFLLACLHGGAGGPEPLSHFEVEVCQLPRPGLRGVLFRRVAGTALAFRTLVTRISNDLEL
The experiment in a line: Selectivity interaction (ActivX KiNativ screen (kinase selectivity in THP-1 cell lysates)) EUB0000639a MARK4. The format is subcellular. The settings on record: lysate, at 0.2 µM.

Assay [6] deals with T3, Dual specificity protein kinase TTK (Homo sapiens) (UniProt P33981).
T3 sequence (whole entry): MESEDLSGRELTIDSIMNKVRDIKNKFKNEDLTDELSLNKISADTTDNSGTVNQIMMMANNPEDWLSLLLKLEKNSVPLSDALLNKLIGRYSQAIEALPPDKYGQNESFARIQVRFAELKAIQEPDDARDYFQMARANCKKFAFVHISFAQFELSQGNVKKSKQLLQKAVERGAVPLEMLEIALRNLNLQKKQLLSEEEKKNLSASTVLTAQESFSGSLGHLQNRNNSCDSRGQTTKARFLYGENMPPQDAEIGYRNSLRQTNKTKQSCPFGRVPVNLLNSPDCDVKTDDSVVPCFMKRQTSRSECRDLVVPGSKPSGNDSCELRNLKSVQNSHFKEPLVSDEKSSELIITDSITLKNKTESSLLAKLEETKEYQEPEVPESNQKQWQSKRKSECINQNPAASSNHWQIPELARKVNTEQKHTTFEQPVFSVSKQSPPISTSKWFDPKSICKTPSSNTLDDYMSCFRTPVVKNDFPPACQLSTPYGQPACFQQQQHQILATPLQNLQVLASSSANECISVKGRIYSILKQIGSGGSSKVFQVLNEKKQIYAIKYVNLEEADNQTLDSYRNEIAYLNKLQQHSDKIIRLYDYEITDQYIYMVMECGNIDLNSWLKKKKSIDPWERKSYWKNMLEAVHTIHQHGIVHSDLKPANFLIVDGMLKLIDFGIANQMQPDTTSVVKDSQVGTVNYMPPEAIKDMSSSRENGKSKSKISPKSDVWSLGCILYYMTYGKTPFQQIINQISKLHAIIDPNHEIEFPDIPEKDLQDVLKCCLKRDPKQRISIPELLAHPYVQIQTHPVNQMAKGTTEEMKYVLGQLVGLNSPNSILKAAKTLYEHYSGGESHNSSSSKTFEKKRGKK
Kind of assay: Selectivity interaction (Kinase panel (DSF assay)) EUB0001559a TTK. For orientation: In DSF a fluorescence change marks the thermal transition of the protein.

Assay [7] deals with Tyrosine-protein kinase Fyn (Homo sapiens) (UniProt P06241). Kind of assay: Selectivity interaction (Ambit KINOMEscan and KiNATiv profiling in Jurkat cells) EUB0000090b FYN. Format: cell-based. The settings on record: at 1 µM.
Sequence of Tyrosine-protein kinase Fyn (Homo sapiens) (P06241 2-537 limits assumed): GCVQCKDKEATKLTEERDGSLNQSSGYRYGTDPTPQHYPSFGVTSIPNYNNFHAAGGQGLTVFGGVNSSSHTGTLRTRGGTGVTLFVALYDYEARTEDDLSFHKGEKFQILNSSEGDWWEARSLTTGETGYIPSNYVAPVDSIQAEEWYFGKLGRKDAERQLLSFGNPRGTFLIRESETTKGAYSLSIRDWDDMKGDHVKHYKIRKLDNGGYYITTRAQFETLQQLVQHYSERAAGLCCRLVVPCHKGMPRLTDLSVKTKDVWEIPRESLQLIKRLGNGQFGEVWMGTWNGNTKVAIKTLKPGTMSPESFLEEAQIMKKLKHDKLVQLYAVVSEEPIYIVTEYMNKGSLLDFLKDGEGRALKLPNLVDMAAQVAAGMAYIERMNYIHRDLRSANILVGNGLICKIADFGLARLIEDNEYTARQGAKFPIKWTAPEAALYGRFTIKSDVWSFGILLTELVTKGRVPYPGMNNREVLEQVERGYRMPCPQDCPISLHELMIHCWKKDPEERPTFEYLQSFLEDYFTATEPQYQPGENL
In assay [8] the target is Serine/threonine-protein kinase 32A (Homo sapiens) (UniProt Q8WU08). The experiment in a line: Selectivity interaction (KinomeScan (DiscoverX)) EUB0001049a STK32A. The following applies: at 1 µM.
Sequence of Serine/threonine-protein kinase 32A (Homo sapiens) (Q8WU08 whole entry): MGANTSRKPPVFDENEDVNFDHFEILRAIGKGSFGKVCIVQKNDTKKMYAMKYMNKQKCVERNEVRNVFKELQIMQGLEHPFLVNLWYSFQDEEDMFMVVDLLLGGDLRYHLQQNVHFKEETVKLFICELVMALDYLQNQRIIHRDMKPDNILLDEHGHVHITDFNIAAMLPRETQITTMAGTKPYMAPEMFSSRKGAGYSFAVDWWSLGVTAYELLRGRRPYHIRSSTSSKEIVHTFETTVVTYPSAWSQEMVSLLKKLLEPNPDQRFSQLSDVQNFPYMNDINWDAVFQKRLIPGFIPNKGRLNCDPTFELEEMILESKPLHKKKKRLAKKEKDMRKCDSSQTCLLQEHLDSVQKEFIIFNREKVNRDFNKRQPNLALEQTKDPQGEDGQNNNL

Sequence of Casein kinase I isoform gamma-3 (Homo sapiens) (Q9Y6M4 whole entry, looked up, canonical isoform): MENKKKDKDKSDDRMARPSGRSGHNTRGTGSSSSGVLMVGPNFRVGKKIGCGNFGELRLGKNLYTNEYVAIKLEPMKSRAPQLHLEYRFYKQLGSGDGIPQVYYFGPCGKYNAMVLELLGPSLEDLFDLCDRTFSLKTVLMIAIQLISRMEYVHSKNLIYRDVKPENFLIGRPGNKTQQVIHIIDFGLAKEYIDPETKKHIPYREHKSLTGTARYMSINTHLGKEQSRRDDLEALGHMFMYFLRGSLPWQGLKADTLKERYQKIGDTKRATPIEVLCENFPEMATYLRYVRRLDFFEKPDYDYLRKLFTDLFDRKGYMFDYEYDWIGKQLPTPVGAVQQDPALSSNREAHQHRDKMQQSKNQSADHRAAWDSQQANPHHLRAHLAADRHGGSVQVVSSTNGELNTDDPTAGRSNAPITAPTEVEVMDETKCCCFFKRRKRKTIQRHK

As to `N#Cc1cccc(-c2c[nH]c3ncnc(N4CCOCC4)c23)c1`, the % of control in assay [1] was determined as 100%.

In the case of `O=C(NOC[C@H](O)CO)c1ccc(F)c(F)c1Nc1ccc(I)cc1F`, the % of control in assay [2] and in assay [3] was 100% in each case. Turning to `CNC(=O)Nc1ccc(-c2nc(N3CC4CCC(C3)O4)c3cnn(C4CCC5(CC4)OCCO5)c3n2)cc1`, the % of control in assay [4] is 85%. `CC[C@@H]1[C@H](F)C(=O)N[C@@H]1COc1nccc2cc(C(N)=O)c(OC)cc12` [ZIMLOVISERTIB] yielded a % of inhibition in assay [5] of 13.2%. In assay [6], `CN(C(=O)c1cnn2cccnc12)c1cc2c(cc1N1CCOCC1)C(=O)N(C[C@@H](F)C(C)(C)O)C2` registered a dTM of -0.3 K. The compound `CN(C)C/C=C/C(=O)Nc1ccc(C(=O)N2CCCC(Nc3ncc(Cl)c(-c4c[nH]c5ccccc45)n3)C2)cc1` (stereo not drawn) yielded a % of control in assay [7] of 61%.

As for `COc1cc(Nc2nc(C)cc(-c3cnn4nc(OC)ccc34)n2)cc(C(F)(F)F)c1`, in assay [8], the % of control was determined as 63%.
